In US11903914B2, “Applications for sulindac in preparing anti-lung cancer products” (SHANGHAI JIAO TONG UNIVERSITY, priority 2015, dated 2024):

Tests used:
Format in all cases: cell-based
SW900 lung cancer cells = experiment: CELLTITER-GLO luminescent cell viability assay, SW900 96-well drug screening plate; settings: Homo sapiens, 72 hours
Description: (§1) In example 1, CELLTITER-GLO was used to test sulindac against lung cancer
(§2) 1. Cell Plating • a) The complete medium required for each cell was prepared. • b) Before beginning the experiment, the name of the drug screened for the cells marked on the 100 mm petri dish was confirmed as well as information such as the passage time and number of passages to ensure the experiment was error-free. • c) Refer to steps d) through i) for procedures for adherent cells; refer to steps j) through l) for procedures for suspension cells. • d) When using aseptic technique, a vacuum pump was used to draw the cell culture medium. • e) 2 ml of a sterile PBS solution was used to rinse cell surfaces, and a vacuum pump was used to aspirate the PBS waste. • f) A 1 ml 0.25% (w/v) Trypsin-0.038% (w/v) EDTA solution was gently added to the petri dish for cell digestion, and after gently mixing several times, the solution covered the cell surfaces. […]

[1] = system: LOVO (ATCC CCL-229) lung cancer cells; experiment: CELLTITER-GLO luminescent cell viability assay, LOVO cells (same method); settings: Homo sapiens
Description: as §2

[2] = system: NCI-H720 lung cancer cells; experiment: CELLTITER-GLO luminescent cell viability assay, NCI-H720 96-well drug screening plate; settings: 72 hours
Description: as §1, §2

- IC50 (SW900 lung cancer cells): 50.3 µM
- IC50 [1]: 100 µM
- IC50 ([2]; CellTiter-Glo): 42.7 µM
- EC50 ([2]; FIG. 2 curve fit): 38.6 µM
Structure (SMILES): CC1=C(CC(=O)O)c2cc(F)ccc2/C1=C\c1ccc([S+](C)[O-])cc1 (stereo not shown) [sulindac]
